The test system of this experiment is TFEB. Briefly: TFEB nuclear translocation assay, HeLa wt cells. To be noted: Homo sapiens, HeLa, 2 h, 2 hrs compound treatment, Table 1 does not say HeLa wt or TRPML1 KO. The format is cell-based. Summed up: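 Cells are plated overnight, exposed to compounds for 2 hrs at 37° C, fixed with 4% PFA, blocked, and stained overnight at 4° C with rabbit anti-TFEB. After Alexa 488 secondary and Hoechst, nuclei and a perinuclear ring are segmented to give a nuclear:ring intensity ratio and AC50.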
Turning to `Cc1ccc(S(=N)(=O)Nc2ccccc2N2CCC(c3ccc(Cl)cc3F)CC2)cc1` (centres unmarked) [Compound A-151, N-{2-[4-(4-chloro-2-fluorophenyl)piperidin-1-yl]phenyl}-4-methylbenzene-1-sulfonoimidamide], the AC50 (in general, the concentration giving half of the maximal activity seen) is 2.01 to 8 µM.
Then `CS(=N)(=O)c1ccc(S(=O)(=O)Nc2ccccc2N2CCC(O)(c3ccc(Cl)cc3F)CC2)cc1` (centres unmarked) [Compound A-152, N-{2-[4-(4-chloro-2-fluorophenyl)-4-hydroxypiperidin-1-yl]phenyl}-4-[iimino(methyl)oxo-λ^6-sulfanyl]benzene-1-sulfonamide], with no less than 10 µM; and `CC(=O)NC1(c2ccc(Cl)cc2F)CCN(c2ccccc2NS(=O)(=O)c2ccc(S(=O)(=O)N(C)C)cc2)CC1` [Compound A-153, N-[4-(4-chloro-2-fluorophenyl)-1-{2-[4-(dimethylsulfamoyl)benzenesulfonamido]phenyl}piperidin-4-yl]acetamide], with 2.01 to 8 µM.
Then `CS(=O)(=O)c1ccc(S(=O)(=O)Nc2cc(F)ccc2N2CCC(c3c(F)cccc3F)CC2)cc1` [Compound A-154, N-{2-[4-(2,6-difluorophenyl)piperidin-1-yl]-5-fluorophenyl}-4-methanesulfonylbenzene-1-sulfonamide], with no more than 2 µM; and `CS(=O)(=O)c1ccc(S(=O)(=O)Nc2ccc(F)cc2N2CCC(c3c(F)cccc3F)CC2)cc1` [Compound A-155, N-{2-[4-(2,6-difluorophenyl)piperidin-1-yl]-4-fluorophenyl}-4-methanesulfonylbenzene-1-sulfonamide], with 2.01 to 8 µM.
With `CN(C)S(=O)(=O)c1ccc(S(=O)(=O)c2ccccc2N2CCC(c3ccc(Cl)cc3F)CC2)cc1` [Compound A-156, 4-((2-(4-(4-chloro-2-fluorophenyl)piperidin-1-yl)phenyl)sulfonyl)-N,N-dimethylbenzenesulfonamide], the AC50 lay in the range of 2.01 to 8 µM.
With `O=S(=O)(Nc1ccccc1N1CCC(c2ccc(Cl)cc2F)CC1)c1ccc(C(O)C(F)(F)F)cc1` (centres unmarked) [Compound A-157, N-{2-[4-(4-chloro-2-fluorophenyl)piperidin-1-yl]phenyl}-4-(2,2,2-trifluoro-1-hydroxyethyl)benzene-1-sulfonamide], the AC50 was no more than 2 µM.
Turning to `O=S(=O)(Nc1ccccc1N1CCC(c2ccc(Cl)cc2F)CC1)c1ccc(C(F)(F)F)c(F)c1` [Compound A-158, N-{2-[4-(4-chloro-2-fluorophenyl)piperidin-1-yl]phenyl}-3-fluoro-4-(trifluoromethyl)benzene-1-sulfonamide], the AC50 is no more than 2 µM.
`O=S(=O)(Nc1ccccc1N1CCC(c2ccc(Cl)cc2F)CC1)c1ccc(C(F)(F)F)cc1F` [Compound A-159, N-{2-[4-(4-chloro-2-fluorophenyl)piperidin-1-yl]phenyl}-2-fluoro-4-(trifluoromethyl)benzene-1-sulfonamide] came in with an AC50 of 2.01 to 8 µM.
`C[S+]([O-])c1ccc(S(=O)(=O)Nc2ccccc2N2CCC(c3ccc(F)cc3F)CC2)cc1` (centres unmarked) [Compound A-160, N-{2-[4-(2,4-difluorophenyl)piperidin-1-yl]phenyl}-4-methanesulfinylbenzene-1-sulfonamide] had an AC50 of 2.01 to 8 µM.
With `CN(C)S(=O)(=O)c1ccc(S(=O)(=O)Nc2ccccc2N2CCC(CO)(c3ccc(F)cc3F)CC2)cc1` [Compound A-161, N4-{2-[4-(2,4-difluorophenyl)-4-(hydroxymethyl)piperidin-1-yl]phenyl}-N1,N1-dimethylbenzene-1,4-disulfonamide], the AC50 lay in the range of 2.01 to 8 µM.
In turn, `CN(C)S(=O)(=O)c1ccc(S(=O)(=O)Nc2ccccc2N2CC(O)(c3ccc(Cl)cc3F)C2)cc1` [Compound A-162, N4-{2-[3-(4-chloro-2-fluorophenyl)-3-hydroxyazetidin-1-yl]phenyl}-N1,N1-dimethylbenzene-1,4-disulfonamide] returned an AC50 of 2.01 to 8 µM.
The molecule `CN(C)S(=O)(=O)c1ccc(S(=O)(=O)Nc2ccccc2N2CCC(C(N)=O)(c3ccc(F)cc3F)CC2)cc1` [Compound A-163, 4-(2,4-difluorophenyl)-1-{2-[4-(dimethylsulfamoyl)benzenesulfonamido]phenyl}piperidine-4-carboxamide] came in with an AC50 of no less than 10 µM.
In turn, `CP(C)(=O)c1ccc(S(=O)(=O)Nc2ccccc2N2CCN(c3ccc(F)cc3F)CC2)cc1` [Compound A-165, N-{2-[4-(2,4-difluorophenyl)piperazin-1-yl]phenyl}-4-(dimethylphosphoryl)benzene-1-sulfonamide] showed a half-maximal activity concentration (AC50) of 2.01 to 8 µM.
For `CS(=N)(=O)c1ccc(S(=O)(=O)Nc2ccccc2N2CCC(c3c(F)cccc3F)CC2)cc1` (centres unmarked) [Compound A-166, N-{2-[4-(2,6-difluorophenyl)piperidin-1-yl]phenyl}-4-[imino(methyl)oxo-λ^6-sulfanyl]benzene-1-sulfonamide], the half-maximal activity concentration (AC50) was 2.01 to 8 µM.
The molecule `COc1ccc(S(=O)(=O)Nc2ccccc2-c2ccc(F)cc2F)cc1` [Compound A-167, N-(2′,4′-difluoro-[1,1′-biphenyl]-2-yl)-4-methoxybenzenesulfonamide] had an AC50 of 2.01 to 8 µM.
Molecule `CN(C)S(=O)(=O)c1ccc(C(Nc2ccccc2N2CCC(c3ccc(Cl)cc3F)CC2)C(F)(F)F)cc1` (centres unmarked) [Compound A-170, 4-[1-({2-[4-(4-chloro-2-fluorophenyl)piperidin-1-yl]phenyl}amino)-2,2,2-trifluoroethyl]-N,N-dimethylbenzene-1-sulfonamide] yielded an AC50 of no more than 2 µM.
Then `CN(C)S(=O)(=O)c1ccc(S(=O)(=O)N2CC(c3ccc(Cl)cc3F)Nc3ccccc32)cc1` (centres unmarked) [Compound A-171, 4-{[3-(4-chloro-2-fluorophenyl)-1,2,3,4-tetrahydroquinoxalin-1-yl]sulfonyl}-N,N-dimethylbenzene-1-sulfonamide], with 2.01 to 8 µM; and `CC(=O)N(C)C1(c2ccc(Cl)cc2F)CCN(c2ccccc2NS(=O)(=O)c2ccc(S(=O)(=O)N(C)C)cc2)CC1` [Compound A-172, N-[4-(4-chloro-2-fluorophenyl)-1-{2-[4-(dimethylsulfamoyl)benzenesulfonamido]phenyl}piperidin-4-yl]-N-methylacetamide], with 2.01 to 8 µM; and `O=S(=O)(Nc1ccccc1N1CCC(c2ccc(F)cc2F)CC1)c1ccc(S(=O)(=O)C(F)(F)F)cc1` [Compound A-173, N-{2-[4-(2,4-difluorophenyl)piperidin-1-yl]phenyl}-4-trifluoromethanesulfonylbenzene-1-sulfonamide], with no more than 2 µM.
Consider `O=S(=O)(Nc1ccccc1N1CCN(c2ccc(F)cc2F)CC1)c1ccc(S(=O)(=O)C(F)(F)F)cc1` [Compound A-174, N-{2-[4-(2,4-difluorophenyl)piperazin-1-yl]phenyl}-4-trifluoromethanesulfonylbenzene-1-sulfonamide], for which the AC50 lay within 2.01 to 8 µM.
`CN(C)S(=O)(=O)c1ccc(S(=O)(=O)Nc2ccccc2N2CCC(C#N)(c3ccc(F)cc3F)CC2)cc1` [Compound A-175, N4-{2-[4-cyano-4-(2,4-difluorophenyl)piperidin-1-yl]phenyl}-N1,N1-dimethylbenzene-1,4-disulfonamide] yielded an AC50 of no more than 2 µM.
In turn, `CP(C)(=O)c1ccc(S(=O)(=O)Nc2ccccc2N2CCC(c3ccc(F)cc3F)CC2)cc1` [Compound A-176, N-{2-[4-(2,4-difluorophenyl)piperidin-1-yl]phenyl}-4-(dimethylphosphoryl)benzene-1-sulfonamide] returned a concentration at half-maximal activity (AC50) of no less than 10 µM.
Turning to `CP(C)(=O)c1ccc(S(=O)(=O)Nc2ccccc2N2CCC(c3c(F)cccc3F)CC2)cc1` [Compound A-177, N-{2-[4-(2,6-difluorophenyl)piperidin-1-yl]phenyl}-4-(dimethylphosphoryl)benzene-1-sulfonamide], the AC50 was no less than 10 µM.
For `O=S(=O)(Nc1ccccc1N1CCN(c2ncc(Cl)cc2F)CC1)c1ccc(S(=O)(=O)C(F)(F)F)cc1` [Compound A-178, N-{2-[4-(5-chloro-3-fluoropyridin-2-yl)piperazin-1-yl]phenyl}-4-trifluoromethanesulfonylbenzene-1-sulfonamide], the AC50 is no more than 2 µM.
In the case of `CN(C)S(=O)(=O)c1ccc(S(=O)(=O)Nc2ccccc2N2CCN(C34CC(C3)C4)CC2)cc1` [Compound A-179, N4-[2-(4-{bicyclo[1.1.1]pentan-1-yl}piperazin-1-yl)phenyl]-N1,N1-dimethylbenzene-1,4-disulfonamide], the AC50 was no more than 2 µM.
Consider `COc1ccc(S(=O)(=O)Nc2ccccc2-c2ncc(F)cc2F)cc1` [Compound A-180, N-(2-(3,5-difluoropyridin-2-yl)phenyl)-4-methoxybenzenesulfonamide], for which the AC50 was 8.01 to 9.99 µM.
The molecule `CN(C)S(=O)(=O)c1ccc([S+]([O-])c2ccccc2N2CCC(c3ccc(Cl)cc3F)CC2)cc1` (centres unmarked) [Compound A-181, 4-((2-(4-(4-chloro-2-fluorophenyl)piperidin-1-yl)phenyl)sulfinyl)-N,N-dimethylbenzenesulfonamide] returned an AC50 of 2.01 to 8 µM.
`CN(C)S(=O)(=O)c1ccc(S(=O)(=O)Nc2ccccc2N2CCC(C)(c3ccccc3Cl)CC2)cc1` [Compound A-183, N4-{2-[4-(2-chlorophenyl)-4-methylpiperidin-1-yl]phenyl}-N1,N1-dimethylbenzene-1,4-disulfonamide] returned an AC50 of no more than 2 µM.
The molecule `CN(C)S(=O)(=O)c1ccc(S(=O)(=O)Nc2ccccc2N2CCC(C)(c3ccc(Cl)cc3)CC2)cc1` [Compound A-184, N4-{2-[4-(4-chlorophenyl)-4-methylpiperidin-1-yl]phenyl}-N1,N1-dimethylbenzene-1,4-disulfonamide] yielded an AC50 of no more than 2 µM.
Consider `O=S(=O)(Nc1ccccc1N1CCC(c2ccc(F)cc2F)CC1)c1ccc(S(=O)(=O)C(F)F)cc1` [Compound A-185, 4-difluoromethanesulfonyl-N-{2-[4-(2,4-difluorophenyl)piperidin-1-yl]phenyl}benzene-1-sulfonamide], for which the AC50 was no more than 2 µM.
`COc1ccc(S(=O)(=O)Nc2ccccc2Oc2ccc(F)cc2F)cc1` [Compound A-186, N-(2-(2,4-difluorophenoxy)phenyl)-4-methoxybenzenesulfonamide] came in with a half-maximal activity concentration (AC50) of no less than 10 µM.

The values are drawn from patent US20230104936A1, “TRPML MODULATORS” (Casma Therapeutics, Inc., priority 2019, published 2023).
